We go through 8 compounds from patent US20220306585A1, “PYRAZOLE DERIVATIVES FOR CONTROLLING ARTHROPODS” (Bayer Animal Health GmbH, priority 2019, published 2022).

A short description of series [1]: Measurement of stability of prodrugs in buffer at pH 7.4. Type of series: physicochemical. The conditions noted are these: PBS buffer pH 7.4, 37° C., HPLC peak area, read-out: % Recovery after 24 h (stability at pH 7.4). As for the experimental part: Preparation of the PBS buffer solution pH 7.4: 90 g sodium chloride, 13.61 g potassium dihydrogen phosphate, 83.35 g 1M aqueous sodium hydroxide were dissolved in water. More water was added up to a total volume of 1 L. This solution was diluted 1:10 with water. Eventually, pH was adjusted to pH 7.4 by the addition of phosphoric acid.
Measurement of Stability of Prodrugs in Buffer at pH 7.4
0.15 mg of the test compound were dissolved in 0.1 mL dimethylsulfoxide and 0.4 mL acetonitrile. For complete dissolution, the HPLC vial with the sample solution was shaken and treated with ultrasound. Then, 1.0 mL of PBS buffer solution pH 7.4 was added and the sample was vortexed. The sample solution was analysed by HPLC (method 8) to determine the amount of the test compound at a particular time over a period of 24 h at 37° C. The peak areas, given as percentage of total area, are used for quantification. In addition, the reaction mixture was analysed by method 9 (HPLC-MS) at the final timepoint.

A short description of series [2]: Measurement of solubility in buffer at pH 6.5. It is filed as physicochemical. The conditions noted are these: aqueous buffer, kinetic from dmso stock; PBS buffer pH 6.5, shaken 24 h at rt, LC-MSMS; read-out: Solubility of example compounds at pH 6.5. How it is done:
Measurement of Solubility in Buffer at pH 6.5 2-4 mg of the test compound are dissolved in DMSO to reach a concentration of 50 g/L (solution A). To 10 μL of this solution 960 μL PBS buffer pH 6.5 are added (final concentration: […]); the mixture is shaken for 24 h at rt in a 96 well plate. An aliquot is centrifuged at 42000 rpm für 30 min. The supernatant is diluted with acetonitrile/water (8:2) 1:10 and 1:1000 resp. This diluted samples are analyzed by LC-MSMS. Calibration: 10 μL of solution A are diluted with 823 μL DMSO (final concentration: 600 μg/mL), which is further diluted with acetonitrile/water 8:2 by a factor of 100 (provides solution B). The calibration curve is obtained from solution B by further diluting with acetonitrile/water 8:2 with target concentrations of 1.2-12-60-600 ng/mL and injecting these four solutions for MS measurement. PBS-Puffer: 6.18 g sodium chloride and 3.96 g sodium dihydrogen phosphate are dissolved in 1 L aqua dist., the pH is adjusted to 6.5 with IN sodium hydroxide.

Series [3] can be described thus: Degradation of prodrugs and release of parent drug in rat plasma. It is filed as in vitro ADME. The conditions noted are these: male, Hannover-Janvier RjHan, rat plasma (Li-heparin), 37° C., percent area of prodrug at t0. As for the experimental part: Measurement of Release of Parent Drug in Rat Plasma 1 mg of the test compound was dissolved in 0.5 mL acetonitrile/dimethylsulfoxide 9:1. For complete dissolution the HPLC vial was shaken and treated with ultrasound. 20 μL of this solution were added to 1 mL of rat plasma (Li-heparin plasma, Hannover-Janvier rat, RjHan male) with vortexing at a temperature of 37° C. Aliquots (100 μL each) were taken at 0.17, 0.5, 1, 1.5, 2 and 4 hours. Each aliquot was transferred to a vial containing 300 μL of acetonitrile/citric acid buffer pH 3 8:2. These solutions were centrifuged at 5000 rpm for 10 minutes. The supernatant was analysed by HPLC (Method 8) to determine the amount of the test compound. In addition, the reaction mixture was analysed by method 9 (HPLC-MS) at the final timepoint. Both decrease of the prodrug concentration and increase of parent drug concentration were monitored. All data is given as percent area of the prodrug at to.

For series [4], the system named is Ctenocephalides felis adult. Put plainly: Antiparasitic activity after administration to rats: fleas. Type of series: in vivo. The conditions noted are these: sc, versus parent drug also injected subcutaneously. As for the experimental part: (§1) Measurement of the Antiparasitic Activity after Administration of a Prodrug to Rats Compounds were dissolved in the appropriate volume of glycerol formal (p.a.) just before application to the animals (dose volume was adjusted to 0.03 mL/kg bodyweight). 5 rats per group were either injected intraperitoneally or subcutaneously. Rats were infested with 30 Dermacentor variabilis nymphs on study days −2, 7, 14, 21, 28, 35 and 30 adult Ctenocephalides fleas on study days −1, 8, 15, 22, 29, 36. Parasite counts were performed on study days 2, 9, 16, 23, 30, 37. Percent efficacy was calculated as arithmetic mean parasite numbers as life attached tick numbers and live flea numbers of the respective study group in comparison to parasite counts on a placebo-treated control group. Infestation of groups with less than 75% efficacy on two consecutive counting occasions will terminated for the respective parasite.

Series [5] concerns Dermacentor variabilis nymph. Description: Antiparasitic activity after administration to rats: ticks. Type of series: in vivo. The conditions noted are these: sc, versus parent drug also injected subcutaneously. How it is done:
as §1

In brackets after ≈: the same amount, converted by molar mass.

On to `Cn1nc(C(F)(F)C(F)(F)F)c(C(F)(F)F)c1-n1cc(-c2ccc(Cl)c(C(=O)N(COC(=O)CCC(=O)O)C3(C#N)CC3)c2)cn1` [Example 6, 4-{[{2-Chloro-5-[2′-methyl-5′-(pentafluoroethyl)-4′-(trifluoromethyl)-2′H-[1,3′-bipyrazol]-4-yl]benzoyl}(1-cyanocyclopropyl)amino]methoxy}-4-oxobutanoic acid], for which the recovery at 24 h, 0.1 mg/mL in series [1] stood at 90%. Also, the solubility at 24 h in series [2] was 0.2 mg/mL (≈ 293 µM).
Taken in the same sequence, the figures for `Cn1nc(C(F)(F)C(F)(F)F)c(C(F)(F)F)c1-n1cc(-c2ccc(Cl)c(C(=O)N(COC(=O)C3(C(=O)O)CC3)C3(C#N)CC3)c2)cn1` [Example 5, 1-({[{2-Chloro-5-[2′-methyl-5′-(pentafluoroethyl)-4′-(trifluoromethyl)-2′H-[1,3′-bipyrazol]-4-yl]benzoyl}(1-cyanocyclopropyl)amino]methoxy}carbonyl)cyclopropane-1-carboxylic acid] were 71% and 0.171 mg/mL (≈ 246 µM).
Consider `Cn1nc(C(F)(F)C(F)(F)F)c(C(F)(F)F)c1-n1cc(-c2ccc(Cl)c(C(=O)N(COC(=O)/C=C/C(=O)O)C3(C#N)CC3)c2)cn1` [Example 7, (2E)-4-{[{2-Chloro-5-[2′-methyl-5′-(pentafluoroethyl)-4′-(trifluoromethyl)-2′H-[1,3′-bipyrazol]-4-yl]benzoyl}(1-cyanocyclopropyl)amino]methoxy}-4-oxobut-2-enoic acid], for which, in series [1], the recovery at 24 h, 0.1 mg/mL came to 96%. In series [3], the recovery at 0.17 h, 39 µg/mL was 84%; the recovery at 0.5 h, 39 µg/mL was determined as 58%; the recovery at 1 h, 39 µg/mL worked out at 26%; the recovery at 1.5 h, 39 µg/mL came to 10%. For the same compound, in series [3], the recovery at 2 h, 39 µg/mL came to 4% and the recovery at 4 h, 39 µg/mL was 0%.
`Cn1nc(C(F)(F)C(F)(F)F)c(C(F)(F)F)c1-n1cc(-c2ccc(Cl)c(C(=O)N(COC(=O)C3CC3C(=O)O)C3(C#N)CC3)c2)cn1` (centres unmarked) [Example 1, 2-({[{2-Chloro-5-[2′-methyl-5′-(pentafluoroethyl)-4′-(trifluoromethyl)-2′H-[1,3′-bipyrazol]-4-yl]benzoyl}(1-cyanocyclopropyl)amino]methoxy}carbonyl)cyclopropane-1-carboxylic acid]: in series [4], the “flea efficacy on rats compared with parent drug” value is given as “superior”. Further, the recovery at 24 h, 0.1 mg/mL in series [1] worked out at 100%. Also, the solubility at 24 h in series [2] is 0.331 mg/mL (≈ 476 µM). Moreover, in series [3], the recovery at 0.17 h, 39 µg/mL was 93%; the recovery at 0.5 h, 39 µg/mL came out at 88%; the recovery at 1 h, 39 µg/mL is 80%; the recovery at 1.5 h, 39 µg/mL came out at 74%. In addition, in series [3], the recovery at 2 h, 39 µg/mL was 66% and the recovery at 4 h, 39 µg/mL turned out to be 49%. In series [5], the “tick efficacy on rats compared with parent drug” value is reported as “superior”.
With `CC(C)(CC(=O)OCN(C(=O)c1cc(-c2cnn(-c3c(Cl)cc(C(F)(C(F)(F)F)C(F)(F)F)cc3OC(F)(F)F)c2)ccc1Cl)C1(C#N)CC1)C(=O)O` [Example 14, 4-{[(2-Chloro-5-{1-[2-chloro-4-(1,1,1,2,3,3,3-heptafluoropropan-2-yl)-6-(trifluoromethoxy)phenyl]-1H-pyrazol-4-yl}benzoyl)(1-cyanocyclopropyl)amino]methoxy}-2,2-dimethyl-4-oxobutanoic acid], the recovery at 24 h, 0.1 mg/mL in series [1] was determined as 63%. Besides, the solubility at 24 h in series [2] was found to be 0.005 mg/mL (≈ 6.19 µM).
For `Cn1nc(C(F)(F)C(F)(F)F)c(C(F)(F)F)c1-n1cc(-c2ccc(Cl)c(C(=O)N(COC(=O)c3ccc(C(=O)O)cc3)C3(C#N)CC3)c2)cn1` [Example 10, 4-({[{2-Chloro-5-[2′-methyl-5′-(pentafluoroethyl)-4′-(trifluoromethyl)-2′H-[1,3′-bipyrazol]-4-yl]benzoyl}(1-cyanocyclopropyl)amino]methoxy}carbonyl)benzoic acid], the recovery at 24 h, 0.1 mg/mL in series [1] came out at 100%. The solubility at 24 h in series [2] was determined as 0.031 mg/mL (≈ 42.4 µM). Further, in series [3], the recovery at 0.17 h, 39 µg/mL was 99%; the recovery at 0.5 h, 39 µg/mL stood at 98%; the recovery at 1 h, 39 µg/mL turned out to be 96%; the recovery at 1.5 h, 39 µg/mL stood at 94%. Moreover, in series [3], the recovery at 2 h, 39 µg/mL stood at 92% and the recovery at 4 h, 39 µg/mL was 85%.
For `Cn1nc(C(F)(F)C(F)(F)F)c(C(F)(F)F)c1-n1cc(-c2ccc(Cl)c(C(=O)N(COC(=O)CC(C)(C)C(=O)O)C3(C#N)CC3)c2)cn1` [Example 2, 4-{[{2-Chloro-5-[2′-methyl-5′-(pentafluoroethyl)-4′-(trifluoromethyl)-2′H-[1,3′-bipyrazol]-4-yl]benzoyl}(1-cyanocyclopropyl)amino]methoxy}-2,2-dimethyl-4-oxobutanoic acid], in series [1], the recovery at 24 h, 0.1 mg/mL was 55%. In addition, the solubility at 24 h in series [2] stood at 0.071 mg/mL (≈ 99.9 µM).
Consider `Cn1nc(C(F)(F)C(F)(F)F)c(C(F)(F)F)c1-n1cc(-c2ccc(Cl)c(C(=O)N(COC(=O)[C@H]3CC[C@H](C(=O)O)CC3)C3(C#N)CC3)c2)cn1` [Example 12, (trans)-4-({[{2-Chloro-5-[2′-methyl-5′-(pentafluoroethyl)-4′-(trifluoromethyl)-2′H-[1,3′-bipyrazol]-4-yl]benzoyl}(1-cyanocyclopropyl)amino]methoxy}carbonyl)cyclohexane-1-carboxylic acid], for which, in series [1], the recovery at 24 h, 0.1 mg/mL came to 100%. Further, in series [2], the solubility at 24 h stood at 0.046 mg/mL (≈ 62.4 µM). Besides, in series [3], the recovery at 0.17 h, 39 µg/mL worked out at 91%; the recovery at 0.5 h, 39 µg/mL is 70%; the recovery at 1 h, 39 µg/mL worked out at 49%; the recovery at 1.5 h, 39 µg/mL was found to be 33%. In addition, in series [3], the recovery at 2 h, 39 µg/mL amounted to 22% and the recovery at 4 h, 39 µg/mL turned out to be 0%.

The term solubility denotes the concentration that dissolves in the medium under given conditions.
